Test results from US8759366B2, “Aminopyrimidines as SYK inhibitors” (Merck Sharp & Dohme Corp., priority 2009, dated 2014).

Target: rhSYK (Homo sapiens (Human), UniProt P43405)
Settings: read-out: rhSYK activity

Row | Structure (SMILES) | IC50 [µM]
1 | Cc1cc(Nc2nccc(C(F)(F)F)n2)cc(-c2cnc(C(NC(=O)NC(N)=O)(C3CC3)C3CC3)s2)c1 [Example 65, N-{dicyclopropyl[5-(3-methyl-5-{[4-(trifluoromethyl)pyrimidin-2-yl]amino}phenyl)-1,3-thiazol-2-yl]methyl}dicarbonimidic diamide] | < 0.1
2 | CC(O)(CO)c1ncc(-c2cccc(Nc3nccc(C(F)(F)F)n3)c2)s1 (single isomer, unassigned) [Ex 5-2] | < 0.1
3 | Cc1cc(Nc2nccc(C(F)(F)F)n2)cc(-c2cnc(C(O)C(F)(F)F)s2)c1 (single isomer, unassigned) [Example 6-4] | < 0.1
4 | Cc1cc(Nc2nccc(C(F)(F)F)n2)cc(-c2cnc(C(C)(O)C(C)(C)O)s2)c1 (stereo not shown) [Ex 5-4] | < 0.1
5 | Cc1cc(Nc2nccc(C(=O)N3CCNCC3)n2)cc(-c2cnc(C(C)(O)C(F)(F)F)s2)c1 (stereo not shown) [Example 69, [2-({3-methyl-5-[2-(1,1,1-trifluoro-2-hydroxypropan-2-yl)-1,3-thiazol-5-yl]phenyl}amino)-pyrimidin-4-yl](piperazin-1-yl)methanone] | < 0.1
6 | Cn1ccc(C(C)(O)c2ncc(-c3cccc(Nc4nccc(C(F)(F)F)n4)c3)s2)c1 (stereo not shown) [Example 4A-16] | < 0.1
7 | CC(=O)N1CCC(O)(c2ncc(-c3cccc(Nc4nccc(C(F)(F)F)n4)c3)s2)CC1 [4D-1] | < 0.1
8 | O=C(Nc1cc(Nc2nccc(C(F)(F)F)n2)cc(-c2cnc(C3(O)CCC3)s2)c1)NC1CCCC1 [Example 19, 1-cyclopentyl-3-(3-[2-(1-hydroxycyclobutyl)-1,3-thiazol-5-yl]-5-{[4-(trifluoromethyl)pyrimidin-2-yl]amino}phenyl)urea] | < 0.1
9 | CC(C)(O)c1ncc(-c2cc(Nc3nccc(C(F)(F)F)n3)cc(C3CC3)c2)s1 [Example 31, 2-[5-(3-cyclopropyl-5-{[4-(trifluoromethyl)pyrimidin-2-yl]amino}phenyl)-1,3-thiazol-2-yl]propan-2-ol] | < 0.1
10 | Fc1ccc(Nc2nccc(C(F)(F)F)n2)cc1Br [N-(3-bromo-4-fluorophenyl)-4-(trifluoromethyl)pyrimidin-2-amine] | 1 to 10
11 | CC(O)(CO)c1ncc(-c2cc(F)cc(Nc3ncc(F)c(C4CC4)n3)c2)s1 (stereo not shown) [Example 57, 2-(5-{3-[(4-cyclopropyl-5-fluoropyrimidin-2-yl)amino]-5-fluorophenyl}-1,3-thiazol-2-yl)propane-1,2-diol] | < 0.1
12 | O=C(c1ncc(-c2cccc(Nc3nccc(C(F)(F)F)n3)c2)s1)C1CC1 [Example 11, Cyclopropyl[5-(3-{[4-(trifluoromethyl)pyrimidin-2-yl]amino}phenyl)-1,3-thiazol-2-yl]methanone] | < 0.1
13 | FC(F)(F)c1ccnc(Nc2cc(Br)cc(-c3cncs3)c2)n1 [Intermediate 11, N-[3-bromo-5-(1,3-thiazol-5-yl)phenyl]-4-(trifluoromethyl)pyrimidin-2-amine] | 0.1 to 1
14 | CC(C)(C)OC(=O)N1CCC(C(C)(O)c2ncc(-c3cccc(Nc4nccc(C(F)(F)F)n4)c3)s2)CC1 (stereo not shown) [Example 15(1), tert-butyl 4-{1-hydroxy-1-[5-(3-{[4-(trifluoromethyl)pyrimidin-2-yl]amino}phenyl)-1,3-thiazol-2-yl]ethyl}piperidine-1-carboxylate] | 0.1 to 1
15 | OC(c1ncc(-c2cccc(Nc3nccc(C(F)(F)F)n3)c2)s1)(C1CC1)C(F)(F)F (stereo not shown) [Example 12, 1-Cyclopropyl-2,2,2-trifluoro-1-[5-(3-{[4-(trifluoromethyl)pyrimidin-2-yl]amino}phenyl)-1,3-thiazol-2-yl]ethanol] | < 0.1

The remaining lines, values ahead:

Row | IC50 [µM] | Structure (SMILES)
16 | < 0.1 | Cc1cc(Nc2nccc(C(F)(F)F)n2)cc(-c2cnc(C3(O)CCN(S(N)(=O)=O)CC3)s2)c1 [Example 49, 4-hydroxy-4-[5-(3-methyl-5-{[4-(trifluoromethyl)pyrimidin-2-yl]amino}phenyl)-1,3-thiazol-2-yl]piperidine-1-sulfonamide]
17 | < 0.1 | Cc1cc(Nc2nccc(C)n2)cc(-c2cnc(C3(O)CCC(CN)CC3)s2)c1 (stereo not shown) [Example 4C-2]
18 | < 0.1 | Cc1cc(Nc2nccc(C(F)(F)F)n2)cc(-c2cnc(C3(O)COC3)s2)c1 [Example 4B-12]
19 | < 0.1 | Cc1cc(Nc2nccc(C)n2)cc(-c2cnc(C3(O)CCC(C)(CC(=O)O)CC3)s2)c1 (single isomer, unassigned) [Example 4C-11]
20 | 0.1 to 1 | OC1(c2ncc(-c3cc(Nc4nccc(C(F)(F)F)n4)cc(C(F)(F)F)c3)s2)CCC1 [Example 2, 1-{5-[3-(trifluoromethyl)-5-{[4-(trifluoromethyl)pyrimidin-2-yl]amino}phenyl]-1,3-thiazol-2-yl}cyclobutanol]
21 | < 0.1 | Cc1cc(Nc2nccc(C(F)(F)F)n2)cc(-c2cnc(C3(O)CCNC(=O)CC3)s2)c1 (stereo not shown) [Example 10, 5-Hydroxy-5-[5-(3-methyl-5-{[4-(trifluoromethyl)pyrimidin-2-yl]amino}phenyl)-1,3-thiazol-2-yl]azepan-2-one]
22 | < 0.1 | Cc1cc(Nc2nccc(C(F)(F)F)n2)cc(-c2cnc(C3(O)CCCC(C)(CC(=O)O)C3)s2)c1 (stereo not shown) [Example 4C-23]
23 | < 0.1 | Cc1cc(Nc2nccc(C(F)(F)F)n2)cc(-c2cnc(C3(O)CCC(CCN)CC3)s2)c1 (stereo not shown) [Example 4C-5]
24 | < 0.1 | Cc1cc(Nc2nccc(C)n2)cc(-c2cnc(C3(O)CCC(N)(C(=O)O)CC3)s2)c1 (stereo not shown) [Example 4C-10]
25 | < 0.1 | Nc1cc(Nc2nccc(C(F)(F)F)n2)cc(-c2cnc(C3(O)CCC3)s2)c1 [Example 17, 1-[5-(3-amino-5-{[4-(trifluoromethyl)pyrimidin-2-yl]amino}phenyl)-1,3-thiazol-2-yl]cyclobutanol]
26 | < 0.1 | Cc1cc(Nc2nccc(C(F)(F)F)n2)cc(-c2cnc(C3(O)CCCC(=O)C3(C)C)s2)c1 (stereo not shown) [Example 8B-1]
27 | < 0.1 | CC(=O)NS(=O)(=O)C1(c2ncc(-c3cc(C)cc(Nc4nccc(C(F)(F)F)n4)c3)s2)CCC1 [Example 74, N-({1-[5-(3-methyl-5-{[4-(trifluoromethyl)pyrimidin-2-yl]amino}phenyl)-1,3-thiazol-2-yl]-cyclobutyl}sulfonyl)acetamide]
28 | 0.1 to 1 | Cc1cc(Nc2nccc(C(F)(F)F)n2)cc(-c2cnc(C3(O)CCN(S(=O)(=O)c4ccccc4)CC3)s2)c1 [Example 50, 4-[5-(3-methyl-5-{[4-(trifluoromethyl)pyrimidin-2-yl]amino}phenyl)-1,3-thiazol-2-yl]-1-(phenylsulfonyl)piperidin-4-ol]
29 | < 0.1 | Cc1cc(Nc2nccc(C(F)(F)F)n2)cc(-c2cnc(C3(O)CCN(C(=O)CCCC(=O)O)CC3)s2)c1 [4D-13]
30 | < 0.1 | Cc1cc(Nc2nccc(C(F)(F)F)n2)cc(-c2cnc(C3(NS(C)(=O)=O)COC3)s2)c1 [Example 60, N-{3-[5-(3-methyl-5-{[4-(trifluoromethyl)pyrimidin-2-yl]amino}phenyl)-1,3-thiazol-2-yl]-oxetan-3-yl}methanesulfonamide]
31 | < 0.1 | Cc1cc(Nc2nccc(C(F)(F)F)n2)cc(-c2cnc(C3(O)CCC4(CC3)OCCO4)s2)c1 [Example 4B-15, 8-[5-(3-methyl-5-{[4-(trifluoromethyl)pyrimidin-2-yl]amino}phenyl)-1,3-thiazol-2-yl]-1,4-dioxaspiro[4.5]decan-8-ol]
